Structures can show the parent of a compound that is named as a salt.
Legend:
Format in all cases: biochemical
[1] = target: T1, JAK1 (Homo sapiens, UniProt P23458); test: JAK tyrosine kinase inhibitory activity in the presence of 1 mM ATP (ELISA), JAK1
T1 construct: purchased Carna Biosciences, Inc
How it was run: (§1)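 Recombinant kinase (7.5 nM JAK1; 0.75 nM JAK2, JAK3 working dilutions) reacted 1 h at 30 °C with 1 mM ATP in Tris-HCl pH 7.5, Tween-20, DTT, on streptavidin plates. Phosphotyrosine detected by HRP anti-pTyr antibody ELISA, TMB absorbance at 450 nm; duplicate wells, DMSO as negative control.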

[2] = target: T2, JAK2 (Homo sapiens, UniProt O60674); test: JAK tyrosine kinase inhibitory activity in the presence of 1 mM ATP (ELISA), JAK2
T2 construct: purchased Carna Biosciences, Inc
How it was run: as §1

[3] = target: T3, JAK3 (Homo sapiens, UniProt P52333); test: JAK tyrosine kinase inhibitory activity in the presence of 1 mM ATP (ELISA), JAK3
T3 construct: purchased Carna Biosciences, Inc
T3 sequence (P52333 1-1124): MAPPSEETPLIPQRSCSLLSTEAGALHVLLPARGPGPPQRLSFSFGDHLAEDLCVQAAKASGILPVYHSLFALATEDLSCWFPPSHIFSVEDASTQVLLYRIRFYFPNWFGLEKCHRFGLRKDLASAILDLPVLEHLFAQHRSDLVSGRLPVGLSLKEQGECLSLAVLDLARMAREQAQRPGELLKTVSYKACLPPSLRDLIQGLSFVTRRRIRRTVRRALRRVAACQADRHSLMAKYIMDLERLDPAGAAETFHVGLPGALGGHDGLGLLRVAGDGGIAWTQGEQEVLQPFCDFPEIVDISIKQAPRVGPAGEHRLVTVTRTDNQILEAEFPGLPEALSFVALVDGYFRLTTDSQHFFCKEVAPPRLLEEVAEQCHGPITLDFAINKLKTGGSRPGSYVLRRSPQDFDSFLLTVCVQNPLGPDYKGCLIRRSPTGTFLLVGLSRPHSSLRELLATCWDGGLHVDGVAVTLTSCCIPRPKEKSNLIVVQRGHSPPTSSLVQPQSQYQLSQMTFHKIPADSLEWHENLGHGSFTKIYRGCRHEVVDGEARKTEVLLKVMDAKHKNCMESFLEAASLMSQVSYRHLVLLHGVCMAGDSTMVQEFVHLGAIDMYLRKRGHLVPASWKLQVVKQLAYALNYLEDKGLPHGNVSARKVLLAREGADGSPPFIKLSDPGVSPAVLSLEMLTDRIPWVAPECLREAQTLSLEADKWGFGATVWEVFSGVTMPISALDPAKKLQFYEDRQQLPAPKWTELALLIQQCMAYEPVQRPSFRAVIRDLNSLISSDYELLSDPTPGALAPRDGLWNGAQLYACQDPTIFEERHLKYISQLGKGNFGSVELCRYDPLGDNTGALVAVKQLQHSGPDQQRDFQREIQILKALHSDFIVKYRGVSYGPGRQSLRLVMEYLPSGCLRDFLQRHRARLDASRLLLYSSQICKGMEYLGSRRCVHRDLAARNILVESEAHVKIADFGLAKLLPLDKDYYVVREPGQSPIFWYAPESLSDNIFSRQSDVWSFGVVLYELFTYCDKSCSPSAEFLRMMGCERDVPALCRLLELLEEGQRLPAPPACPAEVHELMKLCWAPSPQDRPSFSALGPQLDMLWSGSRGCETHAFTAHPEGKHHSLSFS
How it was run: as §1

T2 sequence (O60674 whole entry): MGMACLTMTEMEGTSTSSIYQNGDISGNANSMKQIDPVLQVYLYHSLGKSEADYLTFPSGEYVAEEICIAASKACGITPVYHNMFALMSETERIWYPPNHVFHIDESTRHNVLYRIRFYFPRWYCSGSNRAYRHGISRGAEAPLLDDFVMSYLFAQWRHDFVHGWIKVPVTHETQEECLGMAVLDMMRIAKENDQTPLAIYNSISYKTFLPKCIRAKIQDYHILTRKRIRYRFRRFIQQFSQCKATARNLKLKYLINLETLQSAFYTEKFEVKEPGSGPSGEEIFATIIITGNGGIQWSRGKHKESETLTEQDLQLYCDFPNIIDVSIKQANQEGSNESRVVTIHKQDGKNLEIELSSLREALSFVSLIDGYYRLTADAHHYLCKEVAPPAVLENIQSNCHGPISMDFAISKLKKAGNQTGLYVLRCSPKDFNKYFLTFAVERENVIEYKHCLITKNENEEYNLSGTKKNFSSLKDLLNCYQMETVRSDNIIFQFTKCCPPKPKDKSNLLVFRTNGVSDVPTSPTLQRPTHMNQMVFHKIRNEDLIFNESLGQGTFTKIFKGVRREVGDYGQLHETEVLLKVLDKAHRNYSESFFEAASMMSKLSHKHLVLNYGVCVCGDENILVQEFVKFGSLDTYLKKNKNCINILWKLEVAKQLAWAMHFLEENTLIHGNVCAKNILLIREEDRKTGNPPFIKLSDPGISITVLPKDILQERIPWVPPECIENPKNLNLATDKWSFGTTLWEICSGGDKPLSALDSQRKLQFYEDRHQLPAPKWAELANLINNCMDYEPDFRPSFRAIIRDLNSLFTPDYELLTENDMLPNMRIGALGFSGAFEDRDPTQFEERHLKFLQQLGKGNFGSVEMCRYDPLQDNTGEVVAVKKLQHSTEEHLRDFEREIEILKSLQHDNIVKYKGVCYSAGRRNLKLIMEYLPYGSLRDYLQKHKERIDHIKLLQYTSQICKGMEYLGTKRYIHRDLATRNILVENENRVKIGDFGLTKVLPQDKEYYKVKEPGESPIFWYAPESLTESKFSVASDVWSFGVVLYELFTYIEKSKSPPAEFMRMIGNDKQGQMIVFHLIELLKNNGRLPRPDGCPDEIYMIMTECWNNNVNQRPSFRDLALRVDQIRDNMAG
T1 sequence (P23458 whole entry): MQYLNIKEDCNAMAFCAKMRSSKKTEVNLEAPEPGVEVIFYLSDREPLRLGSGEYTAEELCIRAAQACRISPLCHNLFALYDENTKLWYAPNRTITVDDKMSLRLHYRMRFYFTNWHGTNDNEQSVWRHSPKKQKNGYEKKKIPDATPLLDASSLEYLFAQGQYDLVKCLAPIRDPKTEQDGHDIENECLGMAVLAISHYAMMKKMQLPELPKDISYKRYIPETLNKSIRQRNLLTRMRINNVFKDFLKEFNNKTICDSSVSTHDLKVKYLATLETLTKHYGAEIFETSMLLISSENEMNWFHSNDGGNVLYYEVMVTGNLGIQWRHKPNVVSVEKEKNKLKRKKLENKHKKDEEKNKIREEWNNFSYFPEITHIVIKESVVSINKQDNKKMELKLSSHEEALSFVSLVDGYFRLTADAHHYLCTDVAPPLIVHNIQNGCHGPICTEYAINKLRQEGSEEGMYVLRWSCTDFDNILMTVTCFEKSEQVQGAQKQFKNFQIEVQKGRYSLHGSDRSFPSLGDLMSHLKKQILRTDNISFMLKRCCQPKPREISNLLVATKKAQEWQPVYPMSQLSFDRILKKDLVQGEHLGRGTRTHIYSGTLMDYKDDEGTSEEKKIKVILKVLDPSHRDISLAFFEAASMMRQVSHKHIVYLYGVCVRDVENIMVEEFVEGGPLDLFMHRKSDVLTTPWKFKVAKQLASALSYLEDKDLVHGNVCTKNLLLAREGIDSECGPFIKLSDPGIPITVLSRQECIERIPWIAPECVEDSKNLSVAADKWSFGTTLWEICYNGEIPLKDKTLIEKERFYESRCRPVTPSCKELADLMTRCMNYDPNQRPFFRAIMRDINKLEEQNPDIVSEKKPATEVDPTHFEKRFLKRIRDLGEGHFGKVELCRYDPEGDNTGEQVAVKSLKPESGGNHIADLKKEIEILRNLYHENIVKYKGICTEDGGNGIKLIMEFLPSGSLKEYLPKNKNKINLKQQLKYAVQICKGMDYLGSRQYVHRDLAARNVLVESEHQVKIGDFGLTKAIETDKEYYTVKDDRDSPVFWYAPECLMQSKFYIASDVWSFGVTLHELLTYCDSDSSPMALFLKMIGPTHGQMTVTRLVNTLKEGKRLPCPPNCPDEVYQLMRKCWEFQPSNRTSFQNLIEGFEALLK

IC50 [1]	IC50 [2]	IC50 [3]	Compound
280 nM	770 nM	340 nM	COC(=O)NC1CCN(C(=O)c2cc(NC(C3CC3)C3CC3)nc(-c3cnn4ccsc34)n2)CC1 [Example 140, Methyl [1-({6-[(dicyclopropylmethyl)amino]-2-(pyrazolo[5,1-b][1,3]thiazol-7-yl)pyrimidin-4-yl}carbonyl)piperidin-4-yl]carbamate]
1100 nM	> 10000 nM	> 10000 nM	COC(=O)NC1CCN(C(=O)c2cc(Oc3ccccc3)nc(-c3cnn4ccsc34)n2)CC1 [Example 141, Methyl (1-{[6-phenoxy-2-(pyrazolo[5,1-b][1,3]thiazol-7-yl)pyrimidin-4-yl]carbonyl}piperidin-4-yl)carbamate]
1200 nM	> 10000 nM	> 10000 nM	COC(=O)NC1CCN(C(=O)c2cc(NC3CCN(C(=O)OC(C)(C)C)CC3)nc(-c3cnn4ccsc34)n2)CC1 [Example 142, tert-Butyl 4-{[6-({4-[(methoxycarbonyl)amino]piperidin-1-yl}carbonyl)-2-(pyrazolo[5,1-b][1,3]thiazol-7-yl)pyrimidin-4-yl]amino}piperidine-1-carboxylate]
1900 nM	> 10000 nM	> 10000 nM	COC(=O)NC1CCN(C(=O)c2cc(NC3CCNCC3)nc(-c3cnn4ccsc34)n2)CC1 [Example 143, Methyl (1-{[6-(piperidin-4-ylamino)-2-(pyrazolo[5,1-b][1,3]thiazol-7-yl)pyrimidin-4-yl]carbonyl}piperidin-4 yl)carbamate dihydrochloride]
480 nM	> 10000 nM	6600 nM	COC(=O)NC1CCN(C(=O)c2cc(NC3(C#N)CC3)nc(-c3cnn4ccsc34)n2)CC1 [Example 144, Methyl [1-({6-[(1-cyanocyclopropyl)amino]-2-(pyrazolo[5,1-b][1,3]thiazol-7-yl)pyrimidin-4-yl}carbonyl)piperidin-4-yl]carbamate]
270 nM	1200 nM	1400 nM	COC(=O)NC1CCN(C(=O)c2nc(-c3cnn4ccsc34)nc(N[C@@H](C)C3CC3)c2OC)CC1 [Example 145, Methyl (1-{[6-{[(1S)-1-cyclopropylethyl]amino} 5 methoxy-2-(pyrazolo[5,1-b][1,3]thiazol-7-yl)pyrimidin-4-yl]carbonyl}piperidin-4-yl)carbamate]
270 nM	1600 nM	1400 nM	COC(=O)NC1CCN(C(=O)c2nc(-c3cnn4ccsc34)nc(N[C@H](C)C(C)(C)C)c2OC)CC1 [Example 146, Methyl (1-{[6-{[(2R)-3,3-dimethylbutan-2-yl]amino}-5-methoxy-2-(pyrazolo[5,1-b][1,3]thiazol-7-yl)pyrimidin-4-yl]carbonyl}piperidin-4-yl)carbamate]
2600 nM	> 10000 nM	> 10000 nM	COC(=O)NC1CCN(C(=O)c2cc(N[C@H]3CCN(C(=O)OC(C)(C)C)C3)nc(-c3cnn4ccsc34)n2)CC1 [Example 147, tert-Butyl (3S)-3-{[6 {(4 [(methoxycarbonyl)amino]piperidin-1-yl}carbonyl)-2-(pyrazolo[5,1-b][1,3]thiazol-7-yl)pyrimidin-4-yl]amino}pyrrolidine-1-carboxylate]
1600 nM	> 10000 nM	> 10000 nM	COC(=O)NC1CCN(C(=O)c2cc(N[C@@H]3CCN(C(=O)OC(C)(C)C)C3)nc(-c3cnn4ccsc34)n2)CC1 [Example 148, tert-Butyl (3R)-3-{[6-({4-[(methoxycarbonyl)amino]piperidin-1-yl}carbonyl)-2-(pyrazolo[5,1-b][1,3]thiazol-7-yl)pyrimidin-4-yl]amino}pyrrolidine-1-carboxylate]
1000 nM	> 10000 nM	> 10000 nM	COC(=O)NC1CCN(C(=O)c2cc(N[C@H]3CCNC3)nc(-c3cnn4ccsc34)n2)CC1 [Example 149, Methyl [1-({2-(pyrazolo[5,1-b][1,3]thiazol-7-yl)-6-[(3S)-pyrrolidin-3-ylamino]pyrimidin-4-yl}carbonyl)piperidin-4-yl]carbamate dihydrochloride]
5200 nM	> 10000 nM	> 10000 nM	COC(=O)NC1CCN(C(=O)c2cc(N[C@@H]3CCNC3)nc(-c3cnn4ccsc34)n2)CC1 [Example 150, Methyl [1-({2-(pyrazolo[5,1-b][1,3]thiazol-7-yl)-6-[(3R)-pyrrolidin-3-ylamino]pyrimidin-4-yl}carbonyl)piperidin-4-yl]carbamate dihydrochloride]
2600 nM	> 10000 nM	> 10000 nM	COC(=O)NC1CCN(C(=O)c2cc(N[C@@H]3CCN(C)C3)nc(-c3cnn4ccsc34)n2)CC1 [Example 151, Methyl (1-{[6-{[(3R)-1-methylpyrrolidin-3-yl]amino}-2-(pyrazolo[5,1-b][1,3]thiazol-7-yl)pyrimidin-4-yl]carbonyl}piperidin-4-yl)carbamate]
2300 nM	> 10000 nM	> 10000 nM	COC(=O)NC1CCN(C(=O)c2cc(N[C@@H]3CCN(C(C)=O)C3)nc(-c3cnn4ccsc34)n2)CC1 [Example 152, Methyl (1-{[6-{[(3R)-1-acetylpyrrolidin-3-yl]amino}-2-(pyrazolo[5,1-b][1,3]thiazol-7-yl)pyrimidin-4-yl]carbonyl}piperidin-4-yl)carbamate]
210 nM	7200 nM	9000 nM	CC[C@H](C)Nc1nc(-c2cnn3ccsc23)nc(C(=O)N2CCC(NC(=O)OC)CC2)c1OC [Example 153, Methyl [1-({6-[(2S)-butan-2-ylamino]-5-methoxy-2-(pyrazolo[5,1-b][1,3]thiazol-7-yl)pyrimidin 4 yl}carbonyl)piperidin-4-yl]carbamate]
180 nM	5300 nM	3100 nM	CCOc1c(N[C@@H](C)C2CC2)nc(-c2cnn3ccsc23)nc1C(=O)N1CCC(NC(=O)OC)CC1 [Example 154, Methyl (1-{[6-{[(1S)-1-cyclopropylethyl]amino}-5-ethoxy-2-(pyrazolo[5,1-b][1,3]thiazol-7-yl)pyrimidin-4-yl]carbonyl}piperidin-4-yl)carbamate]
24 nM	4600 nM	1400 nM	CCOc1c(N[C@H](C)C(C)(C)C)nc(-c2cnn3ccsc23)nc1C(=O)N1CCC(NC(=O)OC)CC1 [Example 155, Methyl (1-{[6-{[(2R)-3,3-dimethylbutan-2-yl]amino}-5-ethoxy-2-(pyrazolo[5,1 b][1,3]thiazol 7-yl)pyrimidin-4-yl]carbonyl}piperidin-4-yl)carbamate]
310 nM	5100 nM	> 10000 nM	CCC1CCCCN1c1cc(C(=O)N2CCC(NC(=O)C3CC3)CC2)nc(-c2cnn3ccsc23)n1 (stereo not drawn) [Example 157, N-(1-{[6-(2-ethylpiperidin-1-yl)-2-(pyrazolo[5,1-b][1,3]thiazol-7-yl)pyrimidin-4-yl]carbonyl}piperidin-4-yl)cyclopropanecarboxamide]
1300 nM	> 10000 nM	> 10000 nM	COC(=O)NC1CCN(C(=O)c2cc(NCC(F)(F)F)nc(-c3cnn4ccsc34)n2)CC1 [Example 158, Methyl (1-2-(pyrazolo[5,1-b][1,3]thiazol-7-yl)-6-[(2,2,2-trifluoroethyl)amino]pyrimidine-4-carbonylpiperidin-4-yl)carbamate]
2600 nM	> 10000 nM	> 10000 nM	O=C(NC1CCN(C(=O)c2cc(NCc3cccs3)nc(-c3cnn4ccsc34)n2)CC1)C1CC1 [Example 159, N-1-[2-(pyrazolo[5,1-b][1,3]thiazol-7-yl)-6-[(thiophen-2-yl)methyl]aminopyrimidine-4-carbonyl]piperidin-4-ylcyclopropanecarboxamide]
980 nM	> 10000 nM	> 10000 nM	O=C(NC1CCN(C(=O)c2cc(NCc3ccco3)nc(-c3cnn4ccsc34)n2)CC1)C1CC1 [Example 160, N-1-[6-[(furan-2-yl)methyl]amino-2-(pyrazolo[5,1-b][1,3]thiazol-7-yl)pyrimidine-4-carbonyl]piperidin-4-ylcyclopropanecarboxamide]
